Reference: publication PMC6105673 (Nature Communications, 2018)
Non-standard residues stand in square brackets, D forms with d. *: point of attachment. Biotin = O=C1N[C@H]2[C@H](CS[C@H]2CCCCC(=O)*)N1; Hyp = O=C(O)[C@@H]1C[C@@H](O)CN1

Legend:
[1] = target: T1, pVHL-elongin B-elongin C (VBC) complex (Homo sapiens, UniProt P40337+Q15369+Q15370); test: Biolayer interferometry kinetic analysis of VBC complex binding to biotinylated HIF-2α peptides; conditions: BLItz biolayer interferometry, peptide (523–541) immobilized, purified VBC, global 1:1 model; mean of three experiments ± SEM
T1 construct: a construct encoding N-terminal GST-tagged pVHL19 (54–213); GST (N, cleaved yes); made in house; host or cells: BL21(DE3) E. coli
Experimental: Absorbance was read at 450 nm. […] The data were analyzed based on a 1:1 binding model using the BLItz Pro software with the fitted curves shown as gray lines. […] Values represent mean of three experiments conducted with independently purified protein ± SEM. * denotes uncharacterized band
Multiple concentrations of purified VBC complex were diluted in kinetics buffer and allowed to associate with immobilized peptide over 120 s. Subsequently, the SA-BLI probe was immersed into kinetics buffer for 120 s to allow for dissociation. The data were analyzed, step corrected, reference corrected, and fit to a global 1:1 binding model. Kd, ka, and kd were calculated using the BLItz Pro software.

[2] = target: T1, pVHL-elongin B-elongin C (VBC) complex; test: Steady-state ELISA of VBC complex binding to immobilized biotinylated HIF-2α peptides; conditions: peptides (523–541) on streptavidin plate; VBC 1, 5 and 25 μg/mL; anti-elongin B antibody; three independent experiments in duplicate
Experimental: (§1) Fig. 4 Affinity of HIF-2α mutants for pVHL is correlated with disease phenotype. a Biotinylated HIF-2α peptides (523–541) were immobilized on a streptavidin-coated 96-well plate. Binding to various concentrations of pVHL-elongin B-elongin C (VBC) complex was assayed via ELISA with an anti-eloB antibody. Absorbance was read at 450 nm. Values represent mean of three independent experiments performed in duplicate ± SEM. *p < 0.05; **p < 0.01. b Biotinylated HIF-2αOH peptides (523–541) were immobilized on streptavidin- agarose beads and incubated with in vitro transcribed and translated (IVTT) pVHL. Streptavidin beads were pulled down (PD) and levels of HA-tagged pVHL were visualized via immmunoblotting (IB). c, d Biolayer interferometry kinetic analysis of VBC complex binding to biotinylated HIF-2α peptides (523–541). c Biotinylated peptides were coupled to streptavidin- coated biosensors and monitored for binding to VBC complex at the indicated concentrations. The data were analyzed based on a 1:1 binding model using the BLItz Pro software with the fitted curves shown as gray lines. […]
A 96-well streptavidin-coated plate (Quidel) was hydrated with ~200 μL of buffer A per well. […] Following the final wash step, the plates were developed according to manufacturer’s recommendations with ready-to-use TMB1 reagent (Thermo-fisher, Cat. No. 34028) for 20 min before being quenched with 2 N H2SO4. […]

pVHL = test: In vitro pVHL-HIF-2α binding assay (streptavidin pull-down with IVTT HA-VHL30); conditions: synthetically hydroxylated biotinylated peptides on streptavidin-agarose, IVTT HA-VHL30, 2 h at 4 °C, stringent and mild buffer
Experimental: as §1
The in vitro pVHL-HIF-2α binding assay was performed according to a previously published protocol. […] Protein levels of HA-VHL30 were determined by western blotting. […]

T1 sequence (P40337 54-213): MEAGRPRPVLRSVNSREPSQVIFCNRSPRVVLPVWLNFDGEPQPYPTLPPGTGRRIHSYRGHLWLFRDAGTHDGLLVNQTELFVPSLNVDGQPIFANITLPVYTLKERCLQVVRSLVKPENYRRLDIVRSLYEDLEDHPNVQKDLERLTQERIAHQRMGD
T1 sequence (Q15370 whole entry partner): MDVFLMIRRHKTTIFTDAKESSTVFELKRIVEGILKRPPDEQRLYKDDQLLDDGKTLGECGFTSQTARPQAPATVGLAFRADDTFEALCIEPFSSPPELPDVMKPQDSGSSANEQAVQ
T1 sequence (Q15369 17-112 partner limits assumed): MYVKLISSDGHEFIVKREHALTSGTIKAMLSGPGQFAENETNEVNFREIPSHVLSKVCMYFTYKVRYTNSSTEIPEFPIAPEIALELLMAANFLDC

Row | Compound | ka (association rate) [1] | binding to VBC by ELISA (absorbance at 450 nm, in words) [2] | binding of IVTT pVHL in pull-down (immunoblot, in words) (pVHL)
1 | CC[C@H](C)[C@H](NC(=O)[C@H](Cc1ccc(O)cc1)NC(=O)[C@@H]1C[C@@H](O)CN1C(=O)[C@H](C)NC(=O)[C@@H]1CCCN1C(=O)[C@@H](NC(=O)[C@H](CCC(=O)O)NC(=O)[C@H](CC(C)C)NC(=O)[C@H](CC(=O)O)NC(=O)[C@H](CC(C)C)NC(=O)[C@H](CCC(=O)O)NC(=O)CCCC[C@@H]1SC[C@@H]2NC(=O)N[C@@H]21)[C@@H](C)O)C(=O)N1CCC[C@H]1C(=O)N[C@@H](CCSC)C(=O)N[C@@H](CC(=O)O)C(=O)NCC(=O)N[C@@H](CCC(=O)O)C(=O)N[C@@H](CC(=O)O)C(=O)N[C@@H](Cc1ccccc1)C(=O)N[C@@H](CCC(N)=O)C(N)=O [HIF-2αOH (L529P)] | 4.0 ± 0.4 x10^4 Ms^−1 | does not have a statistically significant effect | –
2 | HIF-2αOH L542 peptide: synthetically P531-hydroxylated HIF-2α peptide (523–542), presumably carrying L542P (Biotin-ELDLETLA[Hyp]YIPMDGEDFQP-NH2; SMILES CC[C@H](C)[C@H](NC(=O)[C@H](Cc1ccc(O)cc1)NC(=O)[C@@H]1C[C@@H](O)CN1C(=O)[C@H](C)NC(=O)[C@H](CC(C)C)NC(=O)[C@@H](NC(=O)[C@H](CCC(=O)O)NC(=O)[C@H](CC(C)C)NC(=O)[C@H](CC(=O)O)NC(=O)[C@H](CC(C)C)NC(=O)[C@H](CCC(=O)O)NC(=O)CCCC[C@@H]1SC[C@@H]2NC(=O)N[C@@H]21)[C@@H](C)O)C(=O)N1CCC[C@H]1C(=O)N[C@@H](CCSC)C(=O)N[C@@H](CC(=O)O)C(=O)NCC(=O)N[C@@H](CCC(=O)O)C(=O)N[C@@H](CC(=O)O)C(=O)N[C@@H](Cc1ccccc1)C(=O)N[C@@H](CCC(N)=O)C(=O)N1CCC[C@H]1C(N)=O) | – | – | rescued binding to pVHL
